Values of other authors as cited in publication PMC5488687 (The Biochemical journal, 2016).
Read-outs that look alike come from different tables or passages of the source.

Experiments:
[1] = tested on: normal human dermal fibroblasts (NHDF); details: read-out: IC50, cell viability of NHDF cells
[2] = tested on: normal human dermal fibroblasts (NHDF)
[3] = tested on: neuroblastoma N1E-115 cells; details: read-out: IC50, cell viability of N1E-115 cells
[4] = tested on: neuroblastoma N1E-115 cells
[5] = tested on: cells with amplified centrosomes

Compound: O=C(O)c1cc(I)ccc1NC(=O)[C@H](Cc1ccccc1)NCc1ccccc1 [CW069]
- IC50 (KIFC1; read-out: IC50, KIFC1 ATPase activity): 75 µM
- IC50 [1]: 187 µM
- effect on bipolar spindle formation in NHDF [2]: no effects
- IC50 [3]: 86 µM
- multipolar spindle formation in N1E-115 cells [4]: increased multipolar spindle formation

Compound: CCCc1cc(C(=O)N[C@H](Cc2ccc(-c3cccc(OC(F)(F)F)c3)nc2)C(=O)N[C@@H]2CCNC2)sc1C [AZ82]
- IC50 (KIFC1; read-out: IC50, MT-stimulated KIFC1 ATPase activity): 0.3 µM
- multipolar spindle formation and mitotic catastrophe [5]: triggered multipolar spindle formation and mitotic catastrophe
- binding to KIFC1/MT complex versus KIFC1 or MT alone (KIFC1/MT complex): bound specifically to KIFC1/MT complex but did not interact directly with KIFC1 or MT
